The target of experiment [1] is BCR fusion to kinase domain of MerTK (Ba/F3-MerTK) (Homo sapiens, UniProt Q12866). The experiment is described as follows: In Cell TAM Kinase Assay Using BaF3 Cellular System. In kind it is cell-based, murine. To be noted: Ba/F3 BCR-kinase fusion proliferation, 72 hours, Cell Titer Glo, kinase not given. The procedure, abridged: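 Ba/F3 murine pro-B cells expressing BCR–MerTK kinase-domain fusion (IL-3 independent), seeded at 1,000 cells/well onto compound and grown 72 h. Viability read by CellTiter-Glo 2.0 luminescence after 30 min at room temperature.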

A further experiment deals with human MER (528-end) (Homo sapiens (Human), UniProt Q12866). Nature of the experiment: HTRF Kinase Activity Biochemical Assay (KinEASE-TK). To be noted: 10 uM ATP. The procedure, abridged:
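Recombinant human MER (528-end) phosphorylated biotin-TK peptide substrate, 1 h at room temperature. Reaction stopped with detection buffer containing 0.375 nM Eu3+-cryptate anti-TK antibody and 0.062 uM streptavidin-XL665, 1 h further. Activity taken as HTRF ratio 665/620 nm ×10,000, 340 nm excitation.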
(In TR-FRET formats the signal depends on donor and acceptor labels being close together.)

Like-named read-outs stand apart in the source and are kept apart here.

BCR fusion to kinase domain of MerTK (Ba/F3-MerTK), sequence (Q12866 21-999 limits assumed, change not shown): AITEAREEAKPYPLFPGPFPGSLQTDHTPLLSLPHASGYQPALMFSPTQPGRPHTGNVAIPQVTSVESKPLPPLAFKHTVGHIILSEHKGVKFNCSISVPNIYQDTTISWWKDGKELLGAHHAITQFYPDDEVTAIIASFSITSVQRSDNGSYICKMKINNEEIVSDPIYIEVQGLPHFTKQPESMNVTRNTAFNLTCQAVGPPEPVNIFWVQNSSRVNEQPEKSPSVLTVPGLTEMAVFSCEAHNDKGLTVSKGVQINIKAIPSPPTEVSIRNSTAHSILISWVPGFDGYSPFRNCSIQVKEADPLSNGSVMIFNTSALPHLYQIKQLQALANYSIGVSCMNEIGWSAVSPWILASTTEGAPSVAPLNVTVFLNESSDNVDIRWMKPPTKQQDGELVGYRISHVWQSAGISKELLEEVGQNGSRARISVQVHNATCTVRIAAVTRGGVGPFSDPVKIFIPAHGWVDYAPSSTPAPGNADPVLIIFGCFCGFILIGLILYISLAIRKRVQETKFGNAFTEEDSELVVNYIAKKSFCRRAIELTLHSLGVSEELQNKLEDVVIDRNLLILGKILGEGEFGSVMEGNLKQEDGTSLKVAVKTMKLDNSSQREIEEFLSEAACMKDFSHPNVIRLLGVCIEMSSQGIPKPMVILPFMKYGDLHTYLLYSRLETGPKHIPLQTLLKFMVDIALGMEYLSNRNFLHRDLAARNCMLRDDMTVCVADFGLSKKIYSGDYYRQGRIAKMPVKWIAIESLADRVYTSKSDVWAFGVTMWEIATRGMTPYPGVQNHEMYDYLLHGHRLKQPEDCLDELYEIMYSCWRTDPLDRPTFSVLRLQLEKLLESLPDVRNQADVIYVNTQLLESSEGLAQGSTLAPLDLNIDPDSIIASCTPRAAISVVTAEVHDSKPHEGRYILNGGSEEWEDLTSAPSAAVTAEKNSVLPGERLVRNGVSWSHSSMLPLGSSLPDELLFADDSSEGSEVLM
human MER (528-end), sequence (Q12866 528-999 limits assumed): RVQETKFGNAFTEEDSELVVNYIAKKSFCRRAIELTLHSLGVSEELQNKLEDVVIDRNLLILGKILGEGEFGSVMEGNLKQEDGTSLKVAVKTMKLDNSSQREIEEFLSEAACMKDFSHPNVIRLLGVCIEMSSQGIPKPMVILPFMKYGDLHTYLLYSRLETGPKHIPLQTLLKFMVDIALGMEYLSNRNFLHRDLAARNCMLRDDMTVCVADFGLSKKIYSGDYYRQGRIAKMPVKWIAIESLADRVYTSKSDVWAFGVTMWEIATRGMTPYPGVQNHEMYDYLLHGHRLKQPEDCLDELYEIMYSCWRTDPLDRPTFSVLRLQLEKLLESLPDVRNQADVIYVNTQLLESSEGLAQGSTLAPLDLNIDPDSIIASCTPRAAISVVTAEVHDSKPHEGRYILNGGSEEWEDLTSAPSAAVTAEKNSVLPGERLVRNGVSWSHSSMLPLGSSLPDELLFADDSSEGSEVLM

Turning to `Cn1cc(-c2cnc(N)c(C(=O)N[C@@H]3CCN(C(=O)c4cc5c(C(F)(F)F)ccc(Cl)c5n4C)C3)c2)cn1` [Example 703, (R)-2-amino-N-(1-(7-chloro-1-methyl-4-(trifluoromethyl)-1H-indole-2-carbonyl)pyrrolidin-3-yl)-5-(1-methyl-1H-pyrazol-4-yl)nicotinamide], the 50% inhibitory concentration (IC50) (in experiment [1] (read-out: IC50); at human MER (528-end)) was greater than 1000 nM in each case.
On to `Cn1cc(-c2cnc(N)c(C(=O)N[C@@H]3CCN(C(=O)c4ccc(Oc5cccc([N+](=O)[O-])c5)cc4)C3)c2)cn1` [Example 829, (R)-2-amino-5-(1-methyl-1H-pyrazol-4-yl)-N-(1-(4-(3-nitrophenoxy)benzoyl)pyrrolidin-3-yl)nicotinamide], for which the concentration for half-maximal inhibition (IC50) (in experiment [1] (read-out: IC50); against human MER (528-end)) was greater than 1000 nM each time.
Take `CN1CCC(Cc2ccc(-c3ccc(C(=O)N4CC[C@@H](NC(=O)c5cc(-c6cnn(C)c6)cnc5N)C4)cc3)cc2)CC1` [Example 643, (R)-2-amino-5-(1-methyl-1H-pyrazol-4-yl)-N-(1-(4′-((1-methylpiperidin-4-yl)methyl)-[1,1′-biphenyl]-4-carbonyl)pyrrolidin-3-yl)nicotinamide]: the figures for the IC50 (in experiment [1] (read-out: IC50); against human MER (528-end)) were greater than 1000 nM and 100 to 1000 nM, respectively.
Regarding `CN(c1ccc(-c2ccc(C(=O)N3CC[C@@H](NC(=O)c4cc(-c5cnn(C)c5)cnc4N)C3)cc2)cc1)c1ccc(N)cc1F` [Example 835, (R)-2-amino-N-(1-(4′-((4-amino-2-fluorophenyl)(methyl)amino)-[1,1′-biphenyl]-4-carbonyl)pyrrolidin-3-yl)-5-(1-methyl-1H-pyrazol-4-yl)nicotinamide], the results for the IC50 (in experiment [1] (read-out: IC50); at human MER (528-end)) were greater than 1000 nM and 100 to 1000 nM, respectively.
For `Cn1cc(-c2cnc(N)c(C(=O)N[C@@H]3CCN(C(=O)c4ccc(-c5ccc(Oc6ccc(CN)cc6)cc5)cc4)C3)c2)cn1` [Example 634, (R)-2-amino-N-(1-(4′-(4-(aminomethyl)phenoxy)-[1,1′-biphenyl]-4-carbonyl)pyrrolidin-3-yl)-5-(1-methyl-1H-pyrazol-4-yl)nicotinamide], the IC50 – broadly, the point on the concentration scale where inhibition reaches its midpoint – is 500 to 1000 nM in experiment [1] (read-out: IC50) and less than 10 nM at human MER (528-end).
For `Cn1cc(-c2cnc(N)c(C(=O)N[C@@H]3CCN(C(=O)c4cc5ccccc5[nH]4)C3)c2)cn1` [Example 697, (R)—N-(1-(1H-indole-2-carbonyl)pyrrolidin-3-yl)-2-amino-5-(1-methyl-1H-pyrazol-4-yl)nicotinamide] the same measures were greater than 1000 nM and greater than 1000 nM.
In the case of `CN(C)Cc1ccc(Oc2ccc(-c3ccc(C(=O)N4CC[C@@H](NC(=O)c5cc(-c6cnn(C)c6)cnc5N)C4)cc3)cc2)cc1` [Example 636, (R)-2-amino-N-(1-(4′-(4-((dimethylamino)methyl)phenoxy)-[1,1′-biphenyl]-4-carbonyl)pyrrolidin-3-yl)-5-(1-methyl-1H-pyrazol-4-yl)nicotinamide], the IC50 in experiment [1] (read-out: IC50) is 100 to 500 nM; on human MER (528-end), 10 to 100 nM.
On to `CN1CCC(N(C)c2ccc3cc(C(=O)N4CC[C@@H](NC(=O)c5cc(-c6cnn(C)c6)cnc5N)C4)ccc3c2)CC1` [Example 644, (R)-2-amino-N-(1-(6-(methyl(1-methylpiperidin-4-yl)amino)-2-naphthoyl)pyrrolidin-3-yl)-5-(1-methyl-1H-pyrazol-4-yl)nicotinamide], for which the results for the IC50 (in experiment [1] (read-out: IC50); on human MER (528-end)) were 100 to 500 nM and 10 to 100 nM, respectively.
Regarding `Cn1cc(-c2cnc(N)c(C(=O)N[C@@H]3CCN(C(=O)OC4CCCC(c5ccccc5)C4)C3)c2)cn1` (stereo partly drawn) [Example 129, 3-phenylcyclohexyl (3R)-3-(2-amino-5-(1-methyl-1H-pyrazol-4-yl)nicotinamido)pyrrolidine-1-carboxylate], the 50% inhibitory concentration (IC50) in experiment [1] (read-out: IC50) is 100 to 500 nM; against human MER (528-end) it was greater than 1000 nM.
In the case of `Cn1cc(-c2cnc(N)c(C(=O)N[C@@H]3CCN(C(=O)c4ccc(-c5ccc(Cl)c(F)c5)cc4)C3)c2)cn1` [Example 661, (R)-2-amino-N-(1-(4′-chloro-3′-fluoro-[1,1′-biphenyl]-4-carbonyl)pyrrolidin-3-yl)-5-(1-methyl-1H-pyrazol-4-yl)nicotinamide], the IC50 in experiment [1] (read-out: IC50) was 500 to 1000 nM; against human MER (528-end), 10 to 100 nM.
Take `Cn1cc(-c2cnc(N)c(C(=O)N[C@@H]3CCN(C(=O)c4ccc(-c5ccc(CN6CCOCC6)cc5)cc4)C3)c2)cn1` [Example 711, (R)-2-amino-5-(1-methyl-1H-pyrazol-4-yl)-N-(1-(4′-(morpholinomethyl)-[1,1′-biphenyl]-4-carbonyl)pyrrolidin-3-yl)nicotinamide]: the concentration for half-maximal inhibition (IC50) (in experiment [1] (read-out: IC50); on human MER (528-end)) was greater than 1000 nM each time.
For `Cn1cc(-c2cnc(N)c(C(=O)NC[C@@H]3CCCN3C(=O)c3ccc(-c4ccccc4)cc3)c2)cn1` [Example 734, (S)—N-((1-([1,1′-biphenyl]-4-carbonyl)pyrrolidin-2-yl)methyl)-2-amino-5-(1-methyl-1H-pyrazol-4-yl)nicotinamide], the IC50 (in experiment [1] (read-out: IC50); against human MER (528-end)) was greater than 1000 nM throughout.
Regarding `Cn1cc(-c2cnc(N)c(C(=O)N[C@@H]3CCN(C(=O)c4ccc5cc(O)ccc5c4)C3)c2)cn1` [Example 706, (R)-2-amino-N-(1-(6-hydroxy-2-naphthoyl)pyrrolidin-3-yl)-5-(1-methyl-1H-pyrazol-4-yl)nicotinamide], the half-maximal inhibitory concentration (IC50) in experiment [1] (read-out: IC50) is greater than 1000 nM; on human MER (528-end) it was 100 to 1000 nM.
For the molecule `Cn1cc(-c2cnc(N)c(C(=O)NC[C@H]3CCCN3C(=O)c3cccc(-c4ccccc4)c3)c2)cn1` [Example 737, (R)—N-((1-([1,1′-biphenyl]-3-carbonyl)pyrrolidin-2-yl)methyl)-2-amino-5-(1-methyl-1H-pyrazol-4-yl)nicotinamide], the IC50 (in experiment [1] (read-out: IC50); against human MER (528-end)) was greater than 1000 nM in each case.
For the molecule `CN1CCN(C(=O)c2ccc(-c3cnc(N)c(C(=O)N[C@@H]4CCN(C(=O)c5ccc(-c6ccccc6Cl)cc5)C4)c3)cc2)CC1` [Example 588, (R)-2-amino-N-(1-(2′-chloro-[1,1′-biphenyl]-4-carbonyl)pyrrolidin-3-yl)-5-(4-(4-methylpiperazine-1-carbonyl)phenyl)nicotinamide], the IC50 was greater than 1000 nM in experiment [1] (read-out: IC50) and 10 to 100 nM on human MER (528-end).
`Cn1cc(-c2cnc(N)c(C(=O)N[C@@H]3CCN(C(=O)c4ccc(-c5ccc(O)nc5)cc4)C3)c2)cn1` [Example 749, (R)-2-amino-N-(1-(4-(6-hydroxypyridin-3-yl)benzoyl)pyrrolidin-3-yl)-5-(1-methyl-1H-pyrazol-4-yl)nicotinamide]: the IC50 (in experiment [1] (read-out: IC50); on human MER (528-end)) was greater than 1000 nM throughout.
Turning to `Cn1cc(-c2cnc(N)c(C(=O)NC[C@H]3CCN(C(=O)c4cccc(-c5ccccc5)c4)C3)c2)cn1` [Example 741, (R)—N-((1-([1,1′-biphenyl]-3-carbonyl)pyrrolidin-3-yl)methyl)-2-amino-5-(1-methyl-1H-pyrazol-4-yl)nicotinamide], the IC50 (in experiment [1] (read-out: IC50); on human MER (528-end)) was greater than 1000 nM each time.
Consider `Nc1ncc(-c2ccc(C(=O)NC3CCOCC3)cc2)cc1C(=O)N[C@@H]1CCN(C(=O)c2ccc(-c3ccccc3Cl)cc2)C1` [Example 593, (R)-2-amino-N-(1-(2′-chloro-[1,1′-biphenyl]-4-carbonyl)pyrrolidin-3-yl)-5-(4-((tetrahydro-2H-pyran-4-yl)carbamoyl)phenyl)nicotinamide], for which the 50% inhibitory concentration (IC50) in experiment [1] (read-out: IC50) is greater than 1000 nM; against human MER (528-end) it was 10 to 100 nM.
`Cn1cc(-c2cnc(N)c(C(=O)N[C@@H]3CCN(C(=O)c4ccc5cc(OCCN6CCCC6)ccc5c4)C3)c2)cn1` [Example 765, (R)-2-amino-5-(1-methyl-1H-pyrazol-4-yl)-N-(1-(6-(2-(pyrrolidin-1-yl)ethoxy)-2-naphthoyl)pyrrolidin-3-yl)nicotinamide]: the IC50 is greater than 1000 nM in experiment [1] (read-out: IC50) and 100 to 1000 nM at human MER (528-end).
For the molecule `Cn1cc(-c2cnc(N)c(C(=O)N[C@@H]3CCN(C(=O)c4ccc(-c5ccc(C6=CCNCC6)cc5)cc4)C3)c2)cn1` [Example 755, (R)-2-amino-5-(1-methyl-1H-pyrazol-4-yl)-N-(1-(4′-(1,2,3,6-tetrahydropyridin-4-yl)-[1,1′-biphenyl]-4-carbonyl)pyrrolidin-3-yl)nicotinamide], the concentration for half-maximal inhibition (IC50) (in experiment [1] (read-out: IC50); at human MER (528-end)) was greater than 1000 nM each time.
Take `Cn1cc(-c2cnc(N)c(C(=O)N[C@@H]3CCN(C(=O)c4cc5cc(F)ccc5[nH]4)C3)c2)cn1` [Example 696, (R)-2-amino-N-(1-(5-fluoro-1H-indole-2-carbonyl)pyrrolidin-3-yl)-5-(1-methyl-1H-pyrazol-4-yl)nicotinamide]: the concentration for half-maximal inhibition (IC50) (in experiment [1] (read-out: IC50); on human MER (528-end)) was greater than 1000 nM each time.
Regarding `Cn1cc(-c2cnc(N)c(C(=O)N[C@@H]3CCN(C(=O)c4ccc(-c5ccc(C(=O)N6CCC(=O)CC6)cc5)cc4)C3)c2)cn1` [Example 679, (R)-2-amino-5-(1-methyl-1H-pyrazol-4-yl)-N-(1-(4′-(4-oxopiperidine-1-carbonyl)-[1,1′-biphenyl]-4-carbonyl)pyrrolidin-3-yl)nicotinamide], the concentration for half-maximal inhibition (IC50) (in experiment [1]; against human MER (528-end)) was greater than 1000 nM in each case.
Regarding `Cn1cc(-c2cnc(N)c(C(=O)N[C@@H]3CCN(C(=O)c4ccc(C5=CCNCC5)cc4)C3)c2)cn1` [Example 753, (R)-2-amino-5-(1-methyl-1H-pyrazol-4-yl)-N-(1-(4-(1,2,3,6-tetrahydropyridin-4-yl)benzoyl)pyrrolidin-3-yl)nicotinamide], the IC50 (in experiment [1] (read-out: IC50); on human MER (528-end)) was greater than 1000 nM in each case.
Turning to `Cn1cc(-c2cnc(N)c(C(=O)N[C@@H]3CCN(C(=O)c4ccc(-c5ccc6c(ccn6C)c5)cc4)C3)c2)cn1` [Example 756, (R)-2-amino-N-(1-(4-(1-methyl-1H-indol-5-yl)benzoyl)pyrrolidin-3-yl)-5-(1-methyl-1H-pyrazol-4-yl)nicotinamide], the values for the IC50 (in experiment [1] (read-out: IC50); against human MER (528-end)) were greater than 1000 nM and 100 to 1000 nM, respectively.

Source of the values: US12378224B2 (Dong-A Socio Holdings Co., Ltd., priority 2016, dated 2025).
